Among the data in patent US20260265190A1, “AROMATIC COMPOUNDS FOR USE AS PROTEIN PHOSPHATASE 2A (PP2A) MODULATORS” (RAPPTA THERAPEUTICS OY, priority 2022, published 2026) are GI50 values, retold here.

Structures are written as SMILES.

The test system of this assay is HCC1937 cells. The experiment in a line: Cell viability assay (MTS), HCC1937 cell line. In kind it is cell-based. Conditions: Homo sapiens, HCC1937 cell line (footnote a), 48 hours. As for the experimental part: HCC1937 cells are plated in a 96 well plate format at a density of 10,000 cells per well. After incubation overnight, cells are treated with a compound (e.g., compound 5) at the following concentrations: 80, 40, 20, 10, 5, 2.5, 1.25 μM. Compound concentrations are prepared in RPMI via serial dilutions from a starting stock of 80 mM. Forty-eight (48) hours after compound treatment, cell viability is assessed using the Promega CellTiter 96 aqueous one proliferation assay (Promega G3582, MTS assay) according to manufacturer's protocol.
The cell viability data was analyzed with GraphPad Prism software. The values were log transformed and analyzed with non-linear regression (curve-fit) using log (inhibitor) vs. response—variable slope (four parameters) and constraining the bottom to equal zero. Unless otherwise indicated, the GI50 values provided in Table 1 correspond to the LNCaP cell viability assays.
The GI50 is the concentration that inhibits growth by half. Higher therefore signals less potent growth inhibition. Compound `CC(C)Oc1ccc(S(=O)(=O)N[C@H](c2ccccc2)C2CCNCC2)cn1` [Example 19, (S)-6-isopropoxy-N-(phenyl(piperidin-4-yl)methyl)pyridine-3-sulfonamide] registered a GI50 of 74.5 µM. As for `CC(C)Oc1ccc(S(=O)(=O)NC(CN2CCNCC2)c2ccc(F)c(F)c2)cn1` (stereo not drawn) [Example 24, N-(1-(3,4-difluorophenyl)-2-(piperazin-1-yl)ethyl)-6-isopropoxypyridine-3-sulfonamide], the GI50 came to 27 µM. Turning to `O=S(=O)(N[C@@H](CN1CCNCC1)c1ccc(Cl)cc1)c1ccccc1` [Example 25, (R)-N-(1-(4-chlorophenyl)-2-(piperazin-1-yl)ethyl)benzenesulfonamide], the GI50 came out at 40.6 µM.
